Earlier results as cited in patent publication US6660299B2, “Modified release pharmaceutical formulation comprising amoxycillin” (Beecham Pharmaceuticals Limited, priority 1999, dated 2003).

Conditions: in vivo

- excretion half-life: 1.3 h
Structure (SMILES): CC1(C)S[C@@H]2[C@H](NC(=O)[C@H](N)c3ccc(O)cc3)C(=O)N2[C@H]1C(=O)O [amoxycillin]
